Laboratory results reported in patent publication US10022453B2 (BAYER PHARMA AKTIENGESELLSCHAFT, priority 2013, dated 2018).

Tests used:
[1] = Cell permeability, flux assay using Caco-2 cells; conditions: human, Caco-2
Protocol: C-3 In Vitro Tests for Determining Cell Permeability
The cell permeability of a substance can be investigated by means of in vitro testing in a flux assay using Caco-2 cells [M. D. Troutman and D. R. Thakker, Pharm. […] For this purpose, the cells were cultured for 15-16 days on 24-well filter plates. For the determination of permeation, the respective working example was applied in a HEPES buffer to the cells either apically (A) or basally (B) and incubated for 2 hours. After 0 hours and after 2 hours, samples were taken from the cis and trans compartments. The samples were separated by HPLC (Agilent 1200, Böblingen, Germany) using reverse phase columns.
Of critical importance for toxophores which are released intracellularly is the permeability from B to A [Papp(B-A)] and the ratio of Papp(B-A) to Papp(A-B) (efflux ratio): the lower this permeability, the slower the active and passive transport processes of the substance through the monolayer of Caco-2 cells.

[2] = target: T1, human kinesin spindle protein KSP/Eg5 (Homo sapiens, UniProt P52732); assay: Inhibition of the kinesin spindle protein KSP/Eg5 (ATPase, malachite green); assay type: biochemical; conditions: 10 nM KSP motor domain, 500 μM ATP, 2 h RT
T1 construct: The motor domain of the human kinesin spindle protein KSP/Eg5; purchased tebu-bio/Cytoskeleton Inc 027EG01-XL
T1 sequence (P52732 18-359 limits assumed): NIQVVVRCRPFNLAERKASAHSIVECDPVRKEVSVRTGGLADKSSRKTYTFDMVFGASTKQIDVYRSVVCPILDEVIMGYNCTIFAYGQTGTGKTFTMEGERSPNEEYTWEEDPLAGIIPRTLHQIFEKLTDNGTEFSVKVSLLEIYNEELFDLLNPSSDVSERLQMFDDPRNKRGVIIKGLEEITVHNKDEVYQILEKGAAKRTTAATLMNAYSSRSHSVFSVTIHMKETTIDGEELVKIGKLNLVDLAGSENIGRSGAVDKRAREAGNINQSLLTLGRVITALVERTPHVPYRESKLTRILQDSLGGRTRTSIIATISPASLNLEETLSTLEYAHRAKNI
Protocol: C-1b Determination of the Inhibition of the Kinesin Spindle Protein KSP/Eg5 by Selected Examples
The motor domain of the human kinesin spindle protein KSP/Eg5 (from tebu-bio/Cytoskeleton Inc, No. 027EG01-XL) is incubated at a concentration of 10 nM with 50 μg/ml taxol- (from Sigma No. T7191-5MG) stabilized microtubuli (bovine or porcine, from tebu-bio/Cytoskeleton Inc) for 5 min at RT in 15 mM PIPES, pH 6.8 (5 mM MgCl2 and 10 mM DTT, from Sigma). The freshly prepared mixture is aliquoted into a 384-well MTP. The inhibitors to be examined at concentrations of 1.0×10^−6 M to 1.0×10^−13 and ATP (final concentration 500 μM, from Sigma) are then added. Incubation is at RT for 2 h. ATPase activity is detected by detecting the inorganic phosphate formed using malachite green (from Biomol). […] The individual data of the dose-activity curve are eight-fold determinations. The IC50 values are means of three independent experiments.

## CC(C)(C)[C@H](c1nc(-c2cc(F)ccc2F)cn1Cc1ccccc1)N(CC[C@H](N)C(=O)NCCCC[C@H](N)C(=O)O)C(=O)CO.O=C(O)C(F)(F)F [Example 59, N^6-{(2S)-2-Amino-4-[{(1R)-1-[1-benzyl-4-(2,5-difluorophenyl)-1H-imidazol-2-yl]-2,2-dimethylpropyl}(glycoloyl)amino]butanoyl}-L-lysine trifluoroacetic acid (1:1)]
[1]
  Papp B→A at 2 h: 2.2 ×10⁻⁶ cm/s
  efflux ratio at 2 h: 4.8
[2]
  IC50: 4.27 nM

## CC(C)[C@H](NC(=O)CCCCCN1C(=O)CC(SC[C@H](N)C(=O)O)C1=O)C(=O)N[C@@H](C)C(=O)N[C@@H](CCCCNC(=O)[C@@H](N)CCN(C(=O)CO)[C@@H](c1nc(-c2cc(F)ccc2F)cn1Cc1ccccc1)C(C)(C)C)C(=O)O.O=C(O)C(F)(F)F (stereo partly drawn) [Example 63, N-[6-(3-{[(2R)-2-Amino-2-carboxyethyl]sulfanyl}-2,5-dioxopyrrolidin-1-yl)hexanoyl]-L-valyl-L-alanyl-N^6-{(2S)-2-amino-4-[{(1R)-1-[1-benzyl-4-(2,5-difluorophenyl)-1H-imidazol-2-yl]-2,2-dimethylpropyl}(glycoloyl)amino]butanoyl}-L-lysine trifluoroacetic acid (1:1)]
[1]
  Papp B→A at 2 h: 0.098 ×10⁻⁶ cm/s
  efflux ratio at 2 h: 1.1
[2]
  IC50: 2.88 nM

## CC(C)(C)[C@H](c1nc(-c2cc(F)ccc2F)cn1Cc1ccccc1)N(CC[C@H](N)C(=O)NCCNC(=O)CN1C(=O)CC(SC[C@H](N)C(=O)O)C1=O)C(=O)CO.O=C(O)C(F)(F)F (stereo partly drawn) [Example 64, S-[1-(2-{[2-({(2S)-2-Amino-4-[{(1R)-1-[1-benzyl-4-(2,5-difluorophenyl)-1H-imidazol-2-yl]-2,2-dimethylpropyl}(glycoloyl)amino]butanoyl}amino)ethyl]amino}-2-oxoethyl)-2,5-dioxopyrrolidin-3-yl]-L-cysteine trifluoroacetic acid (1:1)]
[1]
  Papp B→A at 2 h: 1 ×10⁻⁶ cm/s
  efflux ratio at 2 h: 2.8
[2]
  IC50: 3.06 nM

## C[C@H](NC(=O)CCNC(=O)[C@@H](N)CCN(C(=O)CO)[C@@H](c1nc(-c2cc(F)ccc2F)cn1Cc1ccccc1)C(C)(C)C)C(=O)N[C@@H](CCCNC(N)=O)C(=O)Nc1ccc(NC(=O)CN2C(=O)CC(SC[C@H](N)C(=O)O)C2=O)cc1 (stereo partly drawn) [Example 65, N-{(2S)-2-Amino-4-[{(1R)-1-[1-benzyl-4-(2,5-difluorophenyl)-1H-imidazol-2-yl]-2,2-dimethylpropyl}(glycoloyl)amino]butanoyl}-beta-alanyl-L-alanyl-N-(4-{[(3-{[(2R)-2-amino-2-carboxyethyl]sulphanyl}-2,5-dioxopyrrolidin-1-yl)acetyl]amino}phenyl)-N^5-carbamoyl-L-ornithinamide]
[1]
  Papp B→A at 2 h: 0.12 ×10⁻⁶ cm/s
  efflux ratio at 2 h: 2.3
[2]
  IC50: 2.03 nM

## CC(C)(C)[C@H](c1nc(-c2cc(F)ccc2F)cn1Cc1ccccc1)N(CC[C@H](N)C(=O)NCCC(=O)Nc1ccc(N2C(=O)CC(SC[C@H](N)C(=O)O)C2=O)cc1)C(=O)CO (stereo partly drawn) [Example 66, S-(1-{4-[(N-{(2S)-2-Amino-4-[{(1R)-1-[1-benzyl-4-(2,5-difluorophenyl)-1H-imidazol-2-yl]-2,2-dimethylpropyl}(glycoloyl)amino]butanoyl}-beta-alanyl)amino]phenyl}-2,5-dioxopyrrolidin-3-yl)-L-cysteine]
[1]
  Papp B→A at 2 h: 2.7 ×10⁻⁶ cm/s
  efflux ratio at 2 h: 12
[2]
  IC50: 8.08 nM

## CC(C)(C)[C@H](c1nc(-c2cc(F)ccc2F)cn1Cc1ccccc1)N(CC[C@H](N)C(=O)N[C@H]1CCC[C@H]1C(=O)NCCN1C(=O)CC(SC[C@H](N)C(=O)O)C1=O)C(=O)CO (stereo partly drawn) [Example 67, S-{1-[2-({[(1R,2S)-2-({(2S)-2-Amino-4-[{(1R)-1-[1-benzyl-4-(2,5-difluorophenyl)-1H-imidazol-2-yl]-2,2-dimethylpropyl}(glycoloyl)amino]butanoyl}amino)cyclopentyl]carbonyl}amino)ethyl]-2,5-dioxopyrrolidin-3-yl}-L-cysteine]
[1]
  Papp B→A at 2 h: 2.5 ×10⁻⁶ cm/s
  efflux ratio at 2 h: 15
[2]
  IC50: 8.07 nM

## C[C@H](NC(=O)CCNC(=O)[C@@H](N)CCN(C(=O)CO)[C@@H](c1nc(-c2cc(F)ccc2F)cn1Cc1ccccc1)C(C)(C)C)C(=O)N[C@@H](CCCNC(N)=O)C(=O)Nc1ccc(N2C(=O)CC(SC[C@H](N)C(=O)O)C2=O)cc1 (stereo partly drawn) [Example 68, N-{(2S)-2-Amino-4-[{(1R)-1-[1-benzyl-4-(2,5-difluorophenyl)-1H-imidazol-2-yl]-2,2-dimethylpropyl}(glycoloyl)amino]butanoyl}-beta-alanyl-L-alanyl-N-[4-(3-{[(2R)-2-amino-2-carboxyethyl]sulphanyl}-2,5-dioxopyrrolidin-1-yl)phenyl]-N^5-carbamoyl-L-ornithinamide]
[1]
  Papp B→A at 2 h: 0.18 ×10⁻⁶ cm/s
  efflux ratio at 2 h: 1.9
[2]
  IC50: 3.22 nM

## CC(C)[C@H](NC(=O)CCNC(=O)[C@@H](N)CCN(C(=O)CO)[C@@H](c1nc(-c2cc(F)ccc2F)cn1Cc1ccccc1)C(C)(C)C)C(=O)N[C@@H](CCCNC(N)=O)C(=O)Nc1ccc(CC(=O)NCCN2C(=O)CC(SC[C@H](N)C(=O)O)C2=O)cc1 (stereo partly drawn) [Example 69, N-{(2S)-2-Amino-4-[{(1R)-1-[1-benzyl-4-(2,5-difluorophenyl)-1H-imidazol-2-yl]-2,2-dimethylpropyl}(glycoloyl)amino]butanoyl}-beta-alanyl-L-valyl-N-[4-(2-{[2-(3-{[(2R)-2-amino-2-carboxyethyl]sulphanyl}-2,5-dioxopyrrolidin-1-yl)ethyl]amino}-2-oxoethyl)phenyl]-N^5-carbamoyl-L-ornithinamide]
[1]
  Papp B→A at 2 h: 0.15 ×10⁻⁶ cm/s
  efflux ratio at 2 h: 2
[2]
  IC50: 4.82 nM

## C[C@H](NC(=O)CCNC(=O)[C@@H](N)CCN(C(=O)CO)[C@@H](c1nc(-c2cc(F)ccc2F)cn1Cc1ccccc1)C(C)(C)C)C(=O)N[C@@H](CCCNC(N)=O)C(=O)Nc1ccc(CC(=O)NCCN2C(=O)CC(SC[C@H](N)C(=O)O)C2=O)cc1 (stereo partly drawn) [Example 70, N-{(2S)-2-Amino-4-[{(1R)-1-[1-benzyl-4-(2,5-difluorophenyl)-1H-imidazol-2-yl]-2,2-dimethylpropyl}(glycoloyl)amino]butanoyl}-beta-alanyl-L-alanyl-N-[4-(2-{[2-(3-{[(2R)-2-amino-2-carboxyethyl]sulphanyl}-2,5-dioxopyrrolidin-1-yl)ethyl]amino}-2-oxoethyl)phenyl]-N^5-carbamoyl-L-ornithinamide]
[1]
  Papp B→A at 2 h: 0.16 ×10⁻⁶ cm/s
  efflux ratio at 2 h: 1.9
[2]
  IC50: 3.18 nM

## CC(C)[C@H](N)C(=O)N[C@@H](CCCNC(N)=O)C(=O)NCCCN(C(=O)CO)[C@@H](c1nc(-c2cc(F)ccc2F)cn1Cc1ccccc1)C(C)(C)C [Example 101, Trifluoroacetic acid/L-valyl-N-{3-[{(1R)-1-[1-benzyl-4-(2,5-difluorophenyl)-1H-imidazol-2-yl]-2,2-dimethylpropyl}(glycoloyl)amino]propyl}-N5-carbamoyl-L-ornithinamide (1:1)]
[2]
  IC50: 4.28 nM

## CC(C)(C)[C@H](c1cc(-c2cc(F)ccc2F)cn1Cc1ccccc1)N(CC[C@H](N)C(=O)N[C@@H](CO)C(=O)O)C(=O)CO [Example 201, N-{(2S)-2-Amino-4-[{(1R)-1-[1-benzyl-4-(2,5-difluorophenyl)-1H-pyrrol-2-yl]-2,2-dimethylpropyl}(glycoloyl)amino]butanoyl}-L-serine/trifluoroacetic acid (1:1)]
[2]
  IC50: 0.179 nM

## CC(C)(C)[C@H](c1cc(-c2cc(F)ccc2F)cn1Cc1ccccc1)N(CC[C@H](N)C(=O)NCC(=O)O)C(=O)CO [Example 203, N-{(2S)-2-Amino-4-[{(1R)-1-[1-benzyl-4-(2,5-difluorophenyl)-1H-pyrrol-2-yl]-2,2-dimethylpropyl}(glycoloyl)amino]butanoyl}glycine/trifluoroacetic acid (1:1)]
[2]
  IC50: 0.23 nM

## CC(C)(C)[C@H](c1cc(-c2cc(F)ccc2F)cn1Cc1ccccc1)N(CC[C@H](N)C(=O)NCCNC(=O)CNC(=O)CC1SC[C@@H](C(=O)O)NC1=O)C(=O)CO (stereo partly drawn) [Example 256, (3R)-6-{(11S,15R)-11-Amino-15-[1-benzyl-4-(2,5-difluorophenyl)-1H-pyrrol-2-yl]-14-glycoloyl-16,16-dimethyl-2,5,10-trioxo-3,6,9,14-tetraazaheptadec-1-yl}-5-oxothiomorpholine-3-carboxylic acid/trifluoroacetic acid (1:1)]
[2]
  IC50: 16.4 nM
